# Reference: ChEMBL document CHEMBL1126052, “2-Carboxytetrahydroquinolines. Conformational and stereochemical requirements for antagonism of the glycine site on the NMDA receptor” (J Med Chem, 1992)
# pIC50: −log10 of the molar value.
# Target: Glutamate NMDA receptor
# Assay: Concentration required to inhibit 50% of the specific binding of [3H]glycine to NMDA receptor prepared from rat cerebral cortex and hippocampus
# Type: tissue-based
row,pIC50,SMILES
1,4.82,O=C(O)C[C@H]1C[C@@H](C(=O)O)Nc2cc(Cl)cc(Cl)c21
2,5.38,COC(=O)[C@H]1C[C@@H](C(=O)O)Nc2cc(Cl)cc(I)c21
3,6.87,O=C(O)C[C@H]1C[C@H](C(=O)O)Nc2cc(Cl)cc(Cl)c21
4,5.19,O=C(O)C1CCc2c(Cl)cc(Cl)cc2N1 (configuration not stated)
5,5.63,O=C1CC(C(=O)O)Nc2cc(Cl)ccc21 (configuration not stated)
6,3.75,COC(=O)[C@H]1C[C@H](C(=O)O)Nc2cccc(Cl)c21
7,6.22,COC(=O)C[C@H]1C[C@H](C(=O)O)Nc2cc(Cl)cc(Cl)c21
8,5.89,O=C1CC(C(=O)O)Nc2cc(Br)cc(Br)c21 (configuration not stated)
9,5.42,O=C1CC(C(=O)O)Nc2cc(I)cc(Cl)c21 (configuration not stated)
10,5.73,Cc1cc(C)c2c(c1)NC(C(=O)O)CC2=O (configuration not stated)
11,4.58,COC(=O)[C@H]1C[C@@H](C(=O)O)Nc2cccc(Cl)c21
12,5.54,COC(=O)[C@H]1C[C@H](C(=O)O)Nc2cc(Br)cc(Br)c21
13,< 4.00,O=C1CC(C(=O)O)Nc2ccccc21 (configuration not stated)
14,6.14,NC(=O)[C@H]1C[C@H](C(=O)O)Nc2cc(Cl)cc(Cl)c21
15,4.50,O=C(O)[C@@H]1C[C@H](C(=O)O)c2c(Cl)cc(Cl)cc2N1
16,< 4.00,O=C(O)c1cc(C(=O)O)c2c(Cl)cc(Cl)cc2n1

row,pIC50,SMILES
1,5.46,NC(=O)[C@H]1C[C@@H](C(=O)O)Nc2cc(Cl)cc(Cl)c21
2,< 4.00,Cc1cc(C)c2c(c1)N[C@@H](C(=O)O)[C@H](C)C2=O
3,5.61,COC(=O)[C@H]1C[C@H](C(=O)O)Nc2cc(Cl)cc(Cl)c21
4,5.30,COC(=O)[C@H]1C[C@@H](C(=O)O)Nc2cc(Cl)ccc21
5,4.70,O=C(O)[C@H]1C[C@H](C(=O)O)Nc2cc(Cl)cc(Cl)c21
6,5.60,Cc1noc(C[C@H]2C[C@H](C(=O)O)Nc3cc(Cl)cc(Cl)c32)n1
7,5.16,O=C1CC(C(=O)O)Nc2cccc(Cl)c21 (configuration not stated)
8,4.77,COC(=O)[C@H]1C[C@H](C(=O)O)Nc2cc(Cl)ccc21
9,5.63,O=C(O)[C@@H]1C[C@H](C(=O)OCc2ccccc2)c2c(Cl)cc(Cl)cc2N1
10,5.51,COC(=O)[C@H]1C[C@H](C(=O)O)Nc2cc(Cl)cc(I)c21
11,5.98,O=C(OCc1ccccc1)[C@H]1C[C@H](C(=O)O)Nc2cc(Cl)cc(Cl)c21
12,5.64,O=C1CC(C(=O)O)Nc2cc(Cl)cc(Cl)c21 (configuration not stated)
13,5.69,COC(=O)[C@H]1C[C@@H](C(=O)O)Nc2cc(Br)cc(Br)c21
14,6.44,O=C1CC(C(=O)O)Nc2cc(Cl)cc(I)c21 (configuration not stated)
15,5.92,COC(=O)[C@H]1C[C@@H](C(=O)O)Nc2cc(Cl)cc(Cl)c21
16,4.86,Cc1cc(C)c2c(c1)N[C@@H](C(=O)O)[C@@H](C)C2=O
